Data reported in ChEMBL document CHEMBL1150287.
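Further: measures inhibition of [3H]5-hydroxytryptamine uptake through human SERT expressed in COS-7 cells.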

The molecules below were run against Sodium-dependent serotonin transporter (Homo sapiens) (UniProt P31645). Conditions: COS-7, at 100 nM.
Sodium-dependent serotonin transporter (Homo sapiens), sequence (P31645 whole entry, looked up): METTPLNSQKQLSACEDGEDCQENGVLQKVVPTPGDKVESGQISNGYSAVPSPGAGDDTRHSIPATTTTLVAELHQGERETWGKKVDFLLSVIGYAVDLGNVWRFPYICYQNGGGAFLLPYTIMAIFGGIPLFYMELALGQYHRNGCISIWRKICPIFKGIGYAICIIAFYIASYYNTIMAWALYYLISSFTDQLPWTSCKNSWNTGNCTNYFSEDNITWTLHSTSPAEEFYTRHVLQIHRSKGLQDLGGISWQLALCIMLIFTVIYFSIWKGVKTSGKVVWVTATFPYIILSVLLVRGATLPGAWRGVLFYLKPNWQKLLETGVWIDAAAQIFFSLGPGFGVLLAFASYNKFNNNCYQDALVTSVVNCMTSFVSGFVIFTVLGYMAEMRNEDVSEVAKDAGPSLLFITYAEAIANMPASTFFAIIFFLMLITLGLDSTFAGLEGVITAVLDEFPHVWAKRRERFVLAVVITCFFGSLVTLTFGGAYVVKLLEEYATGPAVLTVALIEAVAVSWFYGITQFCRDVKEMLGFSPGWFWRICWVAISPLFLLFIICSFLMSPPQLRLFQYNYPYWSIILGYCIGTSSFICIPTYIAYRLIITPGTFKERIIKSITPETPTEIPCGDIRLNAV
Description: Inhibition of [3H]5-hydroxytryptamine reuptake at human SERT expressed in african green monkey COS7 cells at 100 nM
In the case of `CNCCC(Oc1ccccc1OC)c1ccccc1` (stereo unspecified), the inhibition is reported as 12.8%.
In the case of `CNCCCC1(c2ccc(F)cc2)OCc2ccccc21` (stereo unspecified), the inhibition is reported as 20.8%.
`CN(C)CCCC1(c2ccccc2)OCc2ccccc21` (stereo unspecified) gave an inhibition of 8.66%.
`CN(C)CCCC1(c2ccccc2)OC(C)(C)c2cc(C#N)ccc21` (stereo unspecified) was tested, and the inhibition was 0.69%.
`CN(C)CCCC1(c2ccc(F)cc2)OC(C)(C)c2ccccc21` (stereo unspecified) showed an inhibition of 0.71%.
For `CN(C)CCCC1(c2ccccc2)OCc2cc(C#N)ccc21` (stereo unspecified), the inhibition was 27.4%.
`CN(C)CCCC1(c2ccc(F)cc2)OCc2ccccc21` (stereo unspecified) gave an inhibition of 26.6%.
Molecule `CNCCCC1(c2ccccc2)OCc2ccccc21` (stereo unspecified) has an inhibition of 9.76%.
With `CNCCCC1(c2ccccc2)OC(C)(C)c2cc(C#N)ccc21` (stereo unspecified) the inhibition was 7.23%.
Molecule `CNCCCC1(c2ccc(F)cc2)OC(C)(C)c2ccccc21` (stereo unspecified) has an inhibition of 3.89%.
`CNCCCC1(c2ccccc2)OCc2cc(C#N)ccc21` (stereo unspecified) showed an inhibition of 53.9%.
`CNCCCC1(c2ccc(F)cc2)OCc2cc(C#N)ccc21` (stereo unspecified) was tested, and the inhibition was 55.5%.
For `CNCCCC1(c2ccc(F)cc2)OC(C)(C)c2cc(C#N)ccc21` (stereo unspecified), the inhibition was 6.56%.
`CN(C)CCCC1(c2ccccc2)OC(C)(C)c2ccccc21` (stereo unspecified) showed an inhibition of 0.31%.
In the case of `CN(C)CCCC1(c2ccc(F)cc2)OC(C)(C)c2cc(C#N)ccc21` (stereo unspecified), the inhibition is reported as 0.74%.
Molecule `CNCCCC1(c2ccccc2)OC(C)(C)c2ccccc21` (stereo unspecified) has an inhibition of 1.65%.
